Read-outs that look alike come from different tables or passages of the source.
Biological target: T1, Humicola insolens cellobiose dehydrogenase, wild type (major form, 92 kDa, pI 4.0, purified from CELLUZYME), SEQ ID NO:2 (Mycothermus thermophilus, UniProt Q9P8H5)
T1 construct: mature 22-785 after 21-residue signal peptide
T1 sequence (Q9P8H5 22-785): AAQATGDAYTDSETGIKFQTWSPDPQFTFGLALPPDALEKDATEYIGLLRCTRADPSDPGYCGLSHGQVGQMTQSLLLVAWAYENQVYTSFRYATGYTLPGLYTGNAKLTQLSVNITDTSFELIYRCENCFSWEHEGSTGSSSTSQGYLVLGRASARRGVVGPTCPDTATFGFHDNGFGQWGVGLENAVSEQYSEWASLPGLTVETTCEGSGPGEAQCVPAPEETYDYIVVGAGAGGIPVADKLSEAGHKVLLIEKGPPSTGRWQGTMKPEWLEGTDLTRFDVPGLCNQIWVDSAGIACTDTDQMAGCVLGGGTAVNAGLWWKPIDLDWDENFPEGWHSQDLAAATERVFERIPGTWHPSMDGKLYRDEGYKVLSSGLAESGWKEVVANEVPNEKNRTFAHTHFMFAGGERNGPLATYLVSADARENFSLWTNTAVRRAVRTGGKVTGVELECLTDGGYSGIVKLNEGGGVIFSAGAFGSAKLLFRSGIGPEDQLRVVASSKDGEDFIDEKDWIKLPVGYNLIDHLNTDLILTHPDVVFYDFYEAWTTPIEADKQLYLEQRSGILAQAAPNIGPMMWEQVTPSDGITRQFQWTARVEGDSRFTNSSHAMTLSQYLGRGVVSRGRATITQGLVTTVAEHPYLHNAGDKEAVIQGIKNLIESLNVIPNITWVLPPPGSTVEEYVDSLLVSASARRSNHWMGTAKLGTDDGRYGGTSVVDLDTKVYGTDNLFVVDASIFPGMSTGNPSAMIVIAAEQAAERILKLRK
Experiment: Steady-state kinetics of cellobiose dehydrogenase with electron donors and acceptors (Lineweaver-Burke plots)
Assay type: biochemical
Details: 0.1 M sodium phosphate pH 7.5, 40° C.; for kcat (electron donor sugar) / kcat (electron acceptor): mol of oxidized cellobiose/s/mol of enzyme
Protocol: All absorption spectra and kinetic measurements were recorded on a Hewlett-Packard 8452A Diode Array Spectrophotometer in 0.75 ml black cuvettes with 1 cm optical path. The fluorescence spectra were recorded on a PERKIN ELMER LS 50.
Potassium ferricyanide (Merck): ε420 =970 M^-1.cm^-1, 3,5-di-tert-butyl-1,2-benzoquinone (Merck): ε410 =1,400 M^-1.cm^-1, Methylene Blue (Merck): ε610 =42,000 M^-1.cm^-1, cytochrome c (Sigma, from horse heart): ε550 =8,000 M^-1.cm^-1.
All measurements were performed in 0.1 M sodium phosphate pH 7.5 buffer at 40° C. […] The reactions were monitored for 400 s as changes in absorbance at the appropriate wavelength (see above). The benzoquinone was dissolved in ethanol to a concentration of 10 mM and diluted in phosphate buffer to the appropriate concentration. The catalytic constants (kcat) were expressed as mol of oxidized cellobiose/s/mol of enzyme. One equivalent of DCPIP, Methylene Blue, or benzoquinone oxidizes one equivalent of cellobiose whereas two equivalents of cytochrome c or ferricyanide oxidizes one equivalent of cellobiose. The kinetic constants were determined using Lineweaver-Burke plots and were the result of dual determinations.

[1] = electron acceptor + 225 μM cellobiose
[2] = electron acceptor + 225 μM cellobiose, read-out: Km (electron acceptor)
[3] = sugar + 90 μM DCPIP, read-out: Km (electron donor sugar)

SMILES	kcat (electron donor sugar) (sugar + 90 μM DCPIP)	kcat (electron acceptor) [1]	Km [2]	Km [3]
CC(=O)N[C@H]1C(O)O[C@H](CO)[C@@H](O[C@@H]2O[C@H](CO)[C@H](O)[C@H](O)[C@H]2O)[C@@H]1O (stereo partly drawn) [N-Acetyllactosamine, N-acetyllactosamine]	0 s⁻¹	–	–	–
O=C1C(Cl)=CC(=Nc2ccc(O)cc2)C=C1Cl [DCPIP, 2,6-dichlorophenolindophenol]	–	12 s⁻¹	26 µM	–
OC[C@H]1O[C@@H](O[C@H]2[C@H](O)[C@@H](O)C(O)O[C@@H]2CO)[C@H](O)[C@@H](O)[C@H]1O (stereo partly drawn) [Lactose]	10 s⁻¹	–	–	51 µM
OC1OC[C@@H](O[C@@H]2OC[C@@H](O)[C@H](O)[C@H]2O)[C@H](O)[C@H]1O (stereo partly drawn) [Xylobiose]	2.15 s⁻¹	–	–	–
OC[C@H]1O[C@H](O[C@H]2[C@H](O)[C@@H](O)[C@H](O)O[C@@H]2CO)[C@H](O)[C@@H](O)[C@@H]1O [Maltose]	0.83 s⁻¹	–	–	11000 µM
CN(C)c1ccc2nc3ccc(=[N+](C)C)cc-3sc2c1 [Methylene Blue]	–	1.85 s⁻¹	18 µM	–
OC[C@H]1OC(O)[C@H](O)[C@@H](O)[C@@H]1O (stereo partly drawn) [Glucose]	0 s⁻¹	–	–	–
CC(=O)N[C@H]1[C@H](O[C@H]2[C@H](O)[C@@H](NC(C)=O)C(O)O[C@@H]2CO)O[C@H](CO)[C@@H](O)[C@@H]1O (stereo partly drawn) [N,N-Diacetylchitobiose, N,N-diacetylchitobiose]	0 s⁻¹	–	–	–
OC[C@H]1O[C@@H](O[C@H]2[C@H](O)[C@@H](O)C(O)O[C@@H]2CO)[C@H](O)[C@@H](O)[C@@H]1O (stereo partly drawn) [Cellobiose]	10 s⁻¹	–	–	11 µM
OC[C@H]1O[C@@H](O[C@H]2[C@H](O)[C@@H](O)[C@H](O[C@H]3[C@H](O)[C@@H](O)[C@H](O[C@H]4[C@H](O)[C@@H](O)[C@H](O[C@H]5[C@H](O)[C@@H](O)C(O)O[C@@H]5CO)O[C@@H]4CO)O[C@@H]3CO)O[C@@H]2CO)[C@H](O)[C@@H](O)[C@@H]1O (stereo partly drawn) [Cellopentaose]	8.3 s⁻¹	–	–	–

Reference: patent US6033891A, “Nucleic acids encoding polypeptides having cellobiose dehydrogenase activity” (Novo Nordisk Biotech, Inc., priority 1999, dated 2000)
